# Ends that are not written are not given here.
# Test system: cell lines described in Example 3 (293T, HeLa, CT26, MCF-7)
# Experiment: Cytotoxicity of LMWP peptides, MTT colorimetric assay
# Format: cell-based, human, murine
# Settings: FIG. 5; TAT at 5.0 mM and 10.0 mM
# Description: Cytotoxicity of the LMWP peptides and TDSP5-gelonin conjugates were examined using the cell lines described in Example 3. In brief, cells grown to 75% confluency were incubated with various concentrations of LMWP peptides, TAT peptide, TDSP5-gelonin conjugate, or TAT-gelonin conjugates. Cell proliferation was measured over 3 days, and cytotoxicity was determined using a colorimetric assay, which was performed by removing the cell culture medium and replacing it with PBS containing 5 mg/ml of 3-(4,5-dimethylthiazol-2-yl)-2,5-diphenyltetrazolium bromide (MTT). The absorbance of the cell culture medium following MTT addition was measured at 540 nm, and the survival ratio was determined by the ratio of the absorbance of sample-treated cells to that of control cells.
row,Substance,cell cytotoxicity (in words)
1,PRRRRSSRRP [TDSP3],little or no toxicity
2,VSRRRRRRGGRRRR [TDSP5],little or no toxicity
3,PRRRRR [TDSP2],little or no toxicity
4,ASRRRRRGGRRRR [TDSP4],little or no toxicity

# Reference: patent US20070071677A1 (priority 2003, published 2007)
